Results: patent publication US20050170437A1, “Methods and compositions relating to modulating amyloid precursor protein cleavage” (The General Hospital Corporation, priority 2003, published 2005)
“Also recorded” adds a separate entry of the source. Where two headings read alike, the source gives them in different places. Where a SMILES comes first, the peptide text is derived from it. [ ]: non-standard residue; d: D form. The star is where a group is joined. Nle = CCCC[C@H](N)C(=O)O; Cbz = O=C(OCc1ccccc1)*

Legend:
[1] = system: APP; assay: Western blot analysis of APP C-terminal fragments (C99, C83, C470, ~55/~85-kDa CTFs) in AC29 cells stably transfected with APP; assay type: cell-based, human; design: steady state levels of C99 / APP-CTF levels (C99, C83, C470) compared with ALLN results: dose or concentration left out as unconfirmed
Description: Wild-type (WT) and cholesterol mutant (AC29 and 25RA) CHO cell lines were grown in Dulbecco's Modified Eagle Medium (DMEM) and Nutrient Mixture F-12 Ham (Sigma-Aldrich, St. Louis, Mo.), respectively. Media were supplemented with 10% (v/v) FBS (Atlanta Biologicals, Norcross, Ga.), 1% (v/v) L-Glutamine-Penicillin-Streptomycin solution (Sigma-Aldrich), and 0.4% (v/v) G418 Sulfate (Calbiochem, La Jolla, Calif.) as selection marker for cells stably transfected with cDNA constructs expressing APP751 or APP(ES/AA), and hygromycin for […]-[…] in a […] TOPO expression vector (Invitrogen, Carlsbad, Calif.). Cells were cultured at 37° C. in a water-saturated air/CO2 atmosphere. The following antibodies against APP were used throughout this study: 22C11 (monoclonal, against N-terminus; Chemicon International, Temecula, Calif.); 369 (monoclonal, against C-terminus; generous gift from Dr. Sam Gandy, Farber Institute for Neuroscience, Thomas Jefferson University, Philadelphia, Pa.); C7 and C8 (against C-terminus; generous gift from Dr. Dennis J. Selkoe, Harvard Medical School, Boston, Mass.); 4G8 (monoclonal, against […]β; Endogen, Woburn, Mass.); 6E10 (monoclonal, against residues 1-17 of Aβ; Senetek, St. Louis, Mo.). Antibodies against calreticulin (ER marker), GM130 (Golgi marker), and EEA-1 (early endosomes) were obtained from StressGen Biotechnologies Corp. (Victoria BC, Canada) and Transduction Laboratories (Lexington, Ky.). Anti-V5 antibody was from Invitrogen (Carlsbad, Calif.). Additional materials used in this study include the γ-secretase inhibitor DAPT (generous gift from Dr. Rudolph E. Tanzi, Massachusetts General Hospital, Charlestown, Mass.), the β-secretase inhibitor Z-VLL-CHO (Calbiochem, La Jolla, Calif.), ALLN (Calbiochem), lactacystin (Sigma-Aldrich), ammonium chloride (Sigma-Aldrich), chloroquine (Sigma-Aldrich), methyl-(3-cyclodextrin (Sigma-Aldrich), and mevastatin (Sigma).

[2] = system: AC29 cells; assay: Cholesterol determinations (intracellular FC and CE pools); assay type: cell-based; design: cholesterol levels: dose or concentration left out as unconfirmed; details: AC29 cells stably transfected with APP
Description: For the determinations of intracellular pools of FC and CE, cells were first incubated ad equilibrium (for 3 days) in the presence of [^14C]Acetic acid (57.0 mCi/mmol) (Amersham Life Science, Elk Grove, Ill.), then washed twice in PBS and extracted in chloroform/methanol (2:1; v/v). The chloroform phase was dried, resuspended again in chloroform, and applied with standards to a Silica Gel-G (EM Science, Gibbstown, N.J.) Thin Layer Chromatography (TLC). Plates were developed in hexane/ethyl ether/acetic acid (87:20:1, v/v) and visualized with […]. Spots were scraped and counted in a liquid scintillation counter.

[3] = system: AC29 cells; assay: Cell viability by release of lactate-dehydrogenase (LDH) into the media; assay type: cell-based; details: mβ-CD for 24 hours
Description: To establish whether the generation of the 55- and 85-kDa APP-CTFs was affected by FC in the absence of changes in CEs, we depleted AC29 cells of cholesterol using a combination of methyl β-cyclodextrin (m#-CD), a sterol-binding molecule, and mevastatin, an HMG-CoA reductase inhibitor. In our studies, mβ-CD was used for 24 hours to allow for cellular cholesterol to reach equilibrium. Cell viability was not affected, as assessed by the release of the cytosolic enzyme lactate-dehydrogenase (LDH) into the media. […] However, it is important to note that normalized FC in AC29 cells only recovered 50% of the Aβ secreted by WT CHO cells (FIG. 2B), the other 50% still missing presumably due to the absence of CE synthesis in these cells. Both ˜55- and ˜85-kDa APP-CTFs were undetectable after successful normalization of FC (FIG. 2C).

[4] = target: APP (Homo sapiens, UniProt P05067); assay: In vitro assays of APP degradation by recombinant HtrA2; assay type: biochemical
Source text: We determined that HtrA2 could serve as a chaperone binding to APP that under cellular stress could switch from chaperone to a protease that degrades misfolded APP. AC29 cells have elevated free (membrane) cholesterol level that may cause ER stress. In AC29 cells, levels of mature form of HtrA2 were elevated in the ER and Golgi as compared to the parental CHO cells (FIG. 10). Furthermore, HtrA2 localized to the cell surface in AC29 cells but not in the parental CHO cells (FIG. 11). Also we determined that HtrA2 co-purified with APP from mammalian cells (FIG. 10) and also co-immunoprecipitated with APP. In in vitro assays, recombinant HtrA2 degraded APP.

APP (Homo sapiens, UniProt P05067), sequence (P05067 18-770): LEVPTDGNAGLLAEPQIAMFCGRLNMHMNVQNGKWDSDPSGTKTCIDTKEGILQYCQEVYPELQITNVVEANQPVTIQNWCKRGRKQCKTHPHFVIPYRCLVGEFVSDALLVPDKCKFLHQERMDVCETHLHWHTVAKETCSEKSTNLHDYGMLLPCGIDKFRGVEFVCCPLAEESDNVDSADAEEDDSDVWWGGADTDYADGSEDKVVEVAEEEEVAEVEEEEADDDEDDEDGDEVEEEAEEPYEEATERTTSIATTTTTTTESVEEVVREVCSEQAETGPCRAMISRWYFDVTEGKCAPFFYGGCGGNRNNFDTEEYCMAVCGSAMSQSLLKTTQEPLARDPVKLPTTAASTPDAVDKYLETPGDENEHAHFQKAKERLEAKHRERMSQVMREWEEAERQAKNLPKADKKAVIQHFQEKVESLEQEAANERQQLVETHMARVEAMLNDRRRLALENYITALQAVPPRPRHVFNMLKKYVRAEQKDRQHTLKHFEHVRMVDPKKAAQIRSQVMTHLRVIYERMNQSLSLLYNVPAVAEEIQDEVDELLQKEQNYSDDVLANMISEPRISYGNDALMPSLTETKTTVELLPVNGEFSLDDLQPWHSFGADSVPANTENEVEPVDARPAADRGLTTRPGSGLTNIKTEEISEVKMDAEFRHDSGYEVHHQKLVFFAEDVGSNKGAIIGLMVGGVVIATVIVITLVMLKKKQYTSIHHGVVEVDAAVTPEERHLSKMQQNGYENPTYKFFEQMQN

C[C@H](NC(=O)Cc1cc(F)cc(F)c1)C(=O)N[C@H](C(=O)OC(C)(C)C)c1ccccc1 [DAPT]
C83 levels ([1]; 250 nM DAPT, antibody C7): increased

CC(=O)N[C@@H](CSC(=O)[C@]1([C@@H](O)C(C)C)NC(=O)[C@H](C)[C@@H]1O)C(=O)O [lactacystin]
APP-CTF levels (C99, C83, C470) compared with ALLN results ([1]; lactacystin instead of ALLN, with or without Z-VLL-CHO, 24 hours): Very similar results

Cl.N [ammonium chloride]
steady-state levels of C470 ([1]; ammonium chloride (NH4Cl, 10 mM)): no effect; also recorded: did not affect

CCN(CC)CCCC(C)Nc1ccnc2cc(Cl)ccc12 (stereo not shown) [chloroquine]
steady-state levels of C470 [1]: no effect; also recorded: did not affect

CC[C@H](C)C(=O)O[C@H]1CCC=C2C=C[C@H](C)[C@H](CC[C@@H]3C[C@@H](O)CC(=O)O3)[C@H]21 [Mevastatin, mevastatin]
cholesterol levels [2]: did not induce significant changes

methyl β-cyclodextrin [mβ-CD]
FC levels ([2]; mβ-CD (1 mM) alone): reduced, but did not normalize; also recorded: reduce but did not normalize | Cell viability (LDH release into the media) [3]: not affected

CC(C)C[C@@H](C=O)NC(=O)[C@H](CC(C)C)NC(=O)[C@@H](NC(=O)OCc1ccccc1)C(C)C [Z-VLL-CHO] (Cbz-Val-Leu-Leu-aldehyde)
increase in steady-state levels of C470 ([1]; Z-VLL-CHO (0.5 mM) alone, 24 hours): not evident

CCCC[C@@H](C=O)NC(=O)[C@H](CC(C)C)NC(=O)[C@H](CC(C)C)NC(C)=O [ALLN] (Ac-Leu-Leu-[Nle]-aldehyde)
steady state levels of C99 ([1]; alone, 24 hours): increased

B1: recombinant HtrA2: serine protease containing a PDZ domain; protein with ζ cleavage activity (protein, UniProt O43464 134-458, looked up)
Serine protease HTRA2, …: AVPSPPPASPRSQYNFIADVVEKTAPAVVYIEILDRHPFLGREVPISNGSGFVVAADGLIVTNAHVVADRRRVRVRLLSGDTYEAVVTAVDPVADIATLRIQTKEPLPTLPLGRSADVRQGEFVVAMGSPFALQNTITSGIVSSAQRPARDLGLPQTNVEYIQTDAAIDFGNSGGPLVNLDGEVIGVNTMKVTAGISFAIPSDRLREFLHRGEKKNSSSGISGSQRRYIGVMMLTLSPSILAELQLREPSFPDVQHGVLIHKVILGSPAHRAGLRPGDVILAIGEQMVQNAEDVYEAVRTQSQLAVQIRRGRETLTLYVTPEVTE
degradation of APP [4]: degraded APP
